# According to ChEMBL document CHEMBL3832761, “MMV Pathogen Box Bioactivity Data” (2017):
# Legend:
# [1] = test system: Plasmodium berghei; test: Antimalarial activity: Liver Stage Plasmodium berghei sporozoite Luciferase assay: inhibition at 10 uM (%); assay type: functional
# [2] = test system: Plasmodium falciparum; test: Antimalarial activity: Asexual Blood Stage Plasmodium falciparum W2 IC50 (uM); assay type: functional, organism-based
# [3] = test system: HepG2; test: HepG2 inhibition at 10 uM (%) Cytotoxicity; assay type: functional; conditions: Homo sapiens
# [4] = test system: Plasmodium falciparum; test: Antimalarial activity: Gametocytes Plasmodium falciparum NF54 Gametocytes Stage V: inhibition at 10 uM (%); assay type: functional
# [5] = test system: Plasmodium falciparum; test: Antimalarial activity: Asexual Blood Stage Plasmodium falciparum 3D7 IC50 (uM); assay type: functional, organism-based
# [6] = test system: Plasmodium falciparum; test: Antimalarial activity: Asexual Blood Stage Plasmodium falciparum Dd2 IC50 (uM); assay type: functional, organism-based
# [7] = test system: HepG2; test: Cytotoxicity data HepG2 CC20 (uM); assay type: functional
# [8] = test system: MRC5; test: MRC5 CC50 (uM) Cytotoxicity; assay type: functional; conditions: Homo sapiens
# [9] = test system: Trypanosoma cruzi; test: AntiTrypanosoma cruzi activity IC50 (uM); assay type: functional, organism-based
# [10] = PMM CC50 (uM) Cytotoxicity; assay type: functional; conditions: Macrophage
# [11] = test system: Leishmania infantum; test: AntiLeishmania activity L. infantum (macrophages) IC50 (uM); assay type: functional, organism-based
# [12] = test system: Trypanosoma brucei; test: AntiTrypanosoma brucei activity T. b. brucei IC50 (uM); assay type: functional, organism-based
Structure (SMILES),Inhibition [1],IC50 [2],inhibition at 10 µM [3],Inhibition [4],IC50 [5],IC50 [6],CC20 [7],CC50 [8],IC50 [9],CC50 [10],IC50 [11],IC50 [12]
O=S(=O)(c1ccc(Cl)cc1)N1CCN(C(=S)NCc2ccco2)CC1,23%,1250 nM,0%,32%,1200 nM,760 nM,28300 nM,,,,,
CCOc1ccccc1C(=O)Nc1cccc(-c2nc3ncccn3c2C)c1,94%,1100 nM,4%,42.5%,1270 nM,2720 nM,,,,,,
Nc1ncc(Br)cc1-c1nc2cc(Cl)cnc2[nH]1,89%,2400 nM,42%,0%,1500 nM,2240 nM,,,,,,
c1ccc2c(c1)CN(CC1CC1)CC1(CCN(Cc3c[nH]c4cnccc34)CC1)O2,89%,2450 nM,35%,8.4%,610 nM,1600 nM,,,,,,
COc1ccc(-c2cncc3ccc(C(=O)NCCCn4ccnc4)nc23)cc1,98%,1720 nM,47%,71.3%,1080 nM,1350 nM,,,,,,
CC(C)C(C(=O)Nc1ccc(S(=O)(=O)N(C)C)cc1)c1ccc(Cl)cc1 (stereo not given),66%,790 nM,17%,31%,930 nM,640 nM,5350 nM,,,,,
CNC(=O)c1cc(S(=O)(=O)N2CCN(c3ccccn3)CC2)cs1,9%,970 nM,6%,34%,1110 nM,850 nM,>80000 nM,,,,,
COc1ccccc1CNC(=O)c1cc(C2CC2)nc2c1cnn2C(C)C,39%,2030 nM,5%,36%,940 nM,1500 nM,11300 nM,,,,,
CC(C(=O)N1CCCC1)N1CCN(S(=O)(=O)c2ccc(C(C)(C)C)cc2)CC1 (stereo not given),18%,2170 nM,0%,1%,900 nM,1330 nM,>80000 nM,,,,,
CC(C)c1ncc(-c2ccncc2)c([C@H]2CC[C@H](CNC(=O)c3cccnc3)CC2)n1,0%,660 nM,0%,3%,840 nM,1000 nM,>80000 nM,,,,,
CN1CCN(S(=O)(=O)c2ccc(-c3ccc4c(Nc5ccc6nn[nH]c6c5)ccnc4c3)cc2)CC1,0%,800 nM,0%,8%,420 nM,420 nM,>80000 nM,,,,,
CO/C=C(/C(=O)OC)c1ccccc1Oc1cc(Oc2ccccc2C#N)ncn1 [AZOXYSTROBIN],97%,30 nM,37%,32.5%,50 nM,90 nM,,> 28000 nM,,,,
COc1cc(OC)cc(C(=O)NCC2Cc3cc(Cl)cc(-c4ccncc4)c3O2)c1 (stereo not given),52%,1020 nM,9%,12.1%,580 nM,3260 nM,,,,,,
COc1cc2ncnc(NC3CCN(Cc4ccccc4)CC3)c2cc1OC,46%,1560 nM,36%,3%,620 nM,970 nM,,,,,,
Cc1cc2ccccc2n1CC(=O)N1CC(C(=O)N2CCCCC2)Oc2ccccc21 (stereo not given),1%,1050 nM,10%,30%,1080 nM,770 nM,21800 nM,,,,,
O=C([C@@H](c1ccc(Cl)cc1)c1cccnc1)N1CCN(c2ccc(C(F)(F)F)cc2)CC1,,,,,,,19000 nM,,10 nM,,,
Cc1cc(NC(=O)c2ccc(S(=O)(=O)N(Cc3ccccc3)C(C)C)cc2)no1,72%,690 nM,13%,12.9%,980 nM,1360 nM,,,,,,
CC1(C)Cc2c(c(N3CCOCC3)nc3snc(Br)c23)CO1,4%,370 nM,4%,1%,290 nM,260 nM,,,,,,
Cc1cc(Nc2ccncc2)n2nc(C)c(-c3ccccc3Cl)c2n1,35%,490 nM,3%,46%,630 nM,690 nM,80000 nM,,,,,
Cc1cc(C)n(-c2ccc(NC(=O)C3CCN(Cc4cnc(C)s4)CC3)cc2)n1,38%,1870 nM,18%,0%,780 nM,2460 nM,,,,,,
COc1ccccc1C(C)NCC(=O)Nc1cc(C(F)(F)F)ccc1Cl (stereo not given),55%,1400 nM,13%,1%,1380 nM,2820 nM,33700 nM,,,,,
O=C(Nc1cnc2ccccc2c1)c1cccc(-n2cnnn2)c1,0%,580 nM,0%,1%,540 nM,1880 nM,>80000 nM,,,,,

Structure (SMILES),Inhibition [1],IC50 [2],inhibition at 10 µM [3],Inhibition [4],IC50 [5],IC50 [6],CC20 [7],CC50 [8],IC50 [9],CC50 [10],IC50 [11],IC50 [12]
CCc1cc(=O)n(C)c(SC(C)C(=O)Nc2ccc(F)cc2)n1 (stereo not given),47%,2090 nM,25%,0%,1970 nM,1990 nM,,,,,,
CC(C)NCC(=O)Nc1cccc(C(=O)Nc2cccc(C(F)(F)F)c2)c1,47%,2250 nM,0%,40%,350 nM,4100 nM,11500 nM,,,,,
COc1ccc(Oc2ccc([C@@H](C)N(C)c3ncc4c(N)nc(N)nc4n3)cc2)cc1,,,,,,,,5400 nM,,4000 nM,30 nM,
C[C@H](c1ccc2c(c1)CCCC2)N(C)c1ncc2c(N)nc(N)nc2n1,,,,,,,,7100 nM,,8000 nM,470 nM,
CNc1cc(C)nc(C2CN(C(=O)c3n[nH]c4ccccc34)CCO2)c1 (stereo not given),,,,,,,,> 64000 nM,3890 nM,,,
Cc1cc(NCC(C)C)c2[nH]nc(-c3ccccc3)c2n1,,2380 nM,9%,,1400 nM,,,,,,,
O=C(c1ccc(NCCO)cc1)C1C[C@H]1c1ccc(Cl)cc1 (stereo not given in full),44%,2260 nM,5%,20%,660 nM,1630 nM,12800 nM,,,,,
CNCCC(Oc1ccc(C(F)(F)F)cc1)c1ccccc1 (stereo not given) [FLUOXETINE],,,,,,,8970 nM,11400 nM,,16000 nM,,
Cc1cc(Cl)c(S(=O)(=O)N2CCCC2)cc1OCC(=O)NC1CCCCC1,81%,160 nM,32%,0%,300 nM,210 nM,,,,,,
Cc1nn(C)cc1C(C)Nc1nncc(-c2ccc(C(F)(F)F)cc2)n1 (stereo not given),45%,260 nM,19%,0%,120 nM,200 nM,,,,,,
FC(F)(F)c1cnc(Sc2nnc(-c3ccncc3)o2)c(Cl)c1,75%,470 nM,28%,0%,270 nM,200 nM,,,,,,
COc1ccc(CCN2CCC(NCc3cccc(N(C)C)c3)CC2)cc1,67%,4470 nM,6%,4.11%,1200 nM,3050 nM,,,,,,
Cc1noc(C)c1C(=O)N1CCCC(c2[nH]c3c(C)cccc3c2-c2ccncc2)C1 (stereo not given),52%,620 nM,0%,42%,940 nM,740 nM,>80000 nM,,,,,
Cc1ccc2cc(C3NC(=O)c4ccccc4N3)c(Cl)nc2c1 (stereo not given),37%,990 nM,2%,0%,1660 nM,2320 nM,>80000 nM,,,,,
CC1CCCN(C(=O)C(C)Nc2cc(Cl)ccc2N2CCOCC2)C1 (stereo not given),46%,880 nM,13%,9.53%,520 nM,1320 nM,,,,,,
CCn1cnc2c(Nc3cc(F)cc(F)c3)nc(C#N)nc21,0%,940 nM,5%,3%,900 nM,940 nM,,,,,,
Cc1ccc2[nH]c3c(NCCN(C)C)ncnc3c2c1,0%,4000 nM,4%,21%,790 nM,1310 nM,,,,,,
COc1ccc(C2=NN(C3CCCCCC3)C(=O)[C@@H]3CC=CC[C@H]23)cc1OCCCCOc1ccc(-c2nnn[nH]2)cc1,,,,,,,,,,,,20 nM
CC(c1cc(Cl)cc(Cl)c1)N(C)c1ncc2c(N)nc(N)nc2n1 (stereo not given),,,,,,,,5900 nM,,> 32000 nM,540 nM,
FC(F)(F)c1ccc(N(c2cccnc2)C2CCN(c3ccc(C(F)(F)F)cn3)CC2)cc1,,,,,,,25800 nM,,10 nM,,,
COc1ccc(Cl)cc1NC(=O)CN(C)C(=O)c1cnn(-c2ccccc2)n1,48%,290 nM,6%,60%,240 nM,240 nM,72200 nM,,,,,
COc1ccc(C2CC(c3cccs3)=NN2C(=O)c2ccco2)cc1OC (stereo not given),26%,850 nM,15%,1%,300 nM,980 nM,43100 nM,,,,,
